The values below come from ChEMBL document CHEMBL1129233, “1,3-diaryl-2-carboxyindoles as potent non-peptide endothelin antagonists” (Bioorg Med Chem Lett, 1996).

Several values for one entry are separate records, joined by “and”; a condition that tells them apart may be missing. Identical values can stand only once.

In experiment [1] the target is T1, Endothelin receptor type B (Homo sapiens, UniProt P24530).
T1 sequence (P24530 whole entry): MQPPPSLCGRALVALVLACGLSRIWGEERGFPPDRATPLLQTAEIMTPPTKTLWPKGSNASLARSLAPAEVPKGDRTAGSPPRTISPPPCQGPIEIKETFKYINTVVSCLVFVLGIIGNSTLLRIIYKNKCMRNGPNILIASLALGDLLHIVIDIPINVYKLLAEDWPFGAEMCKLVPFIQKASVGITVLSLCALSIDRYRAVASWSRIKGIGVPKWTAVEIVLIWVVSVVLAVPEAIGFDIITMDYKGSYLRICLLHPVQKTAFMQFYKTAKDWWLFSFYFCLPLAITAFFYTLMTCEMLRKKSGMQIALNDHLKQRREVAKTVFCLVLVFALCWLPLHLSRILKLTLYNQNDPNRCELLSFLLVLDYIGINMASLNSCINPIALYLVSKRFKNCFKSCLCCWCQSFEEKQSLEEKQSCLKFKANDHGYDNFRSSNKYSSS
The experiment in a line: Inhibitory concentration against Endothelin B receptor expressed in CHO-K1 cells. It counts as cell-based.

In another experiment the target is T2, Endothelin-1 receptor (Homo sapiens, UniProt P25101).
T2 sequence (P25101 whole entry): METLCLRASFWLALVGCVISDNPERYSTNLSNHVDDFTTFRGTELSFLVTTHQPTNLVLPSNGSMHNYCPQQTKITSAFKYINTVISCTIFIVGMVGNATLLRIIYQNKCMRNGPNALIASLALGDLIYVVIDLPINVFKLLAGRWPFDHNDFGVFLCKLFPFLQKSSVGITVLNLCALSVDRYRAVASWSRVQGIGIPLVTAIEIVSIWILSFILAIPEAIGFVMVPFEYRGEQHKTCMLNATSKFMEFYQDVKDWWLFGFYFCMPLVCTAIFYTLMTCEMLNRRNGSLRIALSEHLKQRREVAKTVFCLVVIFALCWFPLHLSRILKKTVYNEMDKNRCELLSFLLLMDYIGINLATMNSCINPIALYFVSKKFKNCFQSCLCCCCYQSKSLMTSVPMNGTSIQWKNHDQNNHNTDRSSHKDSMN
The experiment can be described thus: Inhibitory concentration to the endothelin A receptor expressed in LtK cells. It is filed as cell-based.

The species entered for experiment [2] is Oryctolagus cuniculus. The experiment in a line: Ability to inhibit the release of arachidonic acid in rabbit renal artery vascular smooth muscle cells (ETA) upon stimulation with ET-1. It counts as functional.
Experiment [3] has as its target T3, Endothelin receptor type B (Rattus norvegicus, UniProt P21451).
T3 sequence (P21451 whole entry): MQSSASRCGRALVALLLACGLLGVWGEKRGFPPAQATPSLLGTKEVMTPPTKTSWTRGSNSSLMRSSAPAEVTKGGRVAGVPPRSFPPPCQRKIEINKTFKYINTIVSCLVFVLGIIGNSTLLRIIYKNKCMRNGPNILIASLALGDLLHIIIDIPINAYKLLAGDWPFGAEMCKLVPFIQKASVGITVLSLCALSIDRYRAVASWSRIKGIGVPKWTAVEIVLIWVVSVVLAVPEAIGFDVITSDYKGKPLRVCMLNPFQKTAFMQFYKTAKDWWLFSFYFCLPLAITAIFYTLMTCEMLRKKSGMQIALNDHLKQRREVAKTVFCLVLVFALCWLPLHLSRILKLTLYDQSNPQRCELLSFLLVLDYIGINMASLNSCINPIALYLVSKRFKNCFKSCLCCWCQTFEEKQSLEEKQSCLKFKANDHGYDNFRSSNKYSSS
The experiment in a line: Compound was evaluated for binding affinity against rat Endothelin B receptor; inactive.

Experiment [4] addresses T1, Endothelin receptor type B. The experiment in a line: Compound was evaluated for binding affinity against human Endothelin B receptor.
The target of experiment [5] is Endothelin-1 receptor (Oryctolagus cuniculus). The experiment in a line: Compound was evaluated for binding affinity against rabbit Endothelin A receptor.
For experiment [6], the species on record is Oryctolagus cuniculus. The experiment in a line: Inhibition of arachidonic acid release (AAR-B) in rabbit renal artery vascular smooth muscle cells (ETA) upon stimulation with ET-1. It counts as functional.

As a reminder, the IC50 is the point on the concentration scale where inhibition reaches its midpoint. For `COc1ccc2c(-c3ccc4c(c3)OCO4)c(C(=O)O)n(-c3ccccc3)c2c1`, the IC50 in experiment [1] is more than 25000 nM; against Endothelin-1 receptor it was 7400 nM.

For `O=C(O)c1c(-c2ccc3c(c2)OCO3)c2ccccc2n1Cc1ccccc1`, the IC50 in experiment [1] turned out to be 14500 nM; at Endothelin-1 receptor, 11000 nM.

At Endothelin-1 receptor, `COc1cc2c(-c3ccc4c(c3)OCO4)c(C(=O)O)n(Cc3ccc4c(c3)OCO4)c2cc1OC` displayed an IC50 of 60 nM.

Consider `CCCOc1ccc2c(c1)c(-c1ccc3c(c1)OCO3)c(C(=O)O)n2-c1ccc2c(c1)OCO2`, for which the IC50 in experiment [1] came to 12000 nM; on Endothelin-1 receptor, 43 nM.

`CCCOc1ccc2c(c1)c(-c1ccc3c(c1)OCO3)c(C(=O)O)n2Cc1ccc2c(c1)OCO2`: the IC50 in experiment [1] was 1100 nM and 850 nM; against Endothelin-1 receptor, 130 nM and 80 nM.

As for `COc1ccc2c(c1)c(-c1ccc3c(c1)OCO3)c(C(=O)O)n2Cc1ccc2c(c1)OCO2`, the figures for the IC50 (in experiment [1]; at Endothelin-1 receptor) were 2400 nM and 350 nM, respectively.

In the case of `COc1ccc2c(c1)c(-c1ccc3c(c1)OCO3)c(C(=O)O)n2-c1ccc2c(c1)OCO2`, the IC50 in experiment [1] came out at 15000 nM; against Endothelin-1 receptor, 260 nM.

Consider `O=C(O)c1c(-c2ccc3c(c2)OCO3)c2cc3c(cc2n1Cc1ccc2c(c1)OCO2)OCO3`, for which the IC50 in experiment [1] stood at 670 nM; against Endothelin-1 receptor, 240 nM.

For the compound `COc1ccc(-n2c(C(=O)O)c(-c3ccc4c(c3)OCO4)c3cc(OC)ccc32)cc1`, the values for the IC50 (in experiment [1]; at Endothelin-1 receptor) were more than 25000 nM and 3500 nM, respectively.

`COc1ccc2c(c1)c(-c1ccc(OC)c(OC)c1)c(C(=O)O)n2-c1ccc2c(c1)OCO2`: the values for the IC50 (in experiment [1]; against Endothelin-1 receptor) were more than 25000 nM and 1500 nM, respectively.

With `COc1ccc(-c2c(C(=O)O)n(-c3ccc4c(c3)OCO4)c3ccc(OCc4ccccc4)cc23)cc1`, the IC50 came out at 21000 nM in experiment [1] and 2400 nM against Endothelin-1 receptor.

For `O=C(O)c1c(-c2ccc3c(c2)OCO3)c2ccccc2n1-c1ccc2c(c1)OCO2`, the IC50 in experiment [1] turned out to be 22000 nM; against Endothelin-1 receptor, 4100 nM.

Consider `CCCOc1ccc2c(-c3ccc4c(c3)OCO4)c(C(=O)O)n(Cc3ccc4c(c3)OCO4)c2c1`, for which the figures for the IC50 (in experiment [1]; on Endothelin-1 receptor; in the experiment listed under Oryctolagus cuniculus [2]) were 5600 nM, 47 nM and 480 nM, respectively.

Consider `COc1ccc(-c2c(C(=O)O)n(Cc3ccc4c(c3)OCO4)c3cc(OC)c(OC)cc23)cc1OC`, for which the IC50 in experiment [1] was 850 nM; on Endothelin-1 receptor, 60 nM.

Turning to `COc1ccc(-n2c(C(=O)O)c(-c3ccc4c(c3)OCO4)c3ccccc32)cc1`, the IC50 was more than 25000 nM in experiment [1] and 2300 nM at Endothelin-1 receptor.

With `CC(C)Oc1c(C(=O)O)sc2ccc(OCc3ccccc3)cc12`, the IC50 entry in experiment [3] is “Not Active”; in experiment [4], more than 100000 nM; in experiment [5], 6000 nM.

In the case of `O=C(O)c1c(-c2ccc3c(c2)OCO3)c2cc(OCc3ccccc3)ccc2n1-c1ccc2c(c1)OCO2`, the IC50 in experiment [1] worked out at 14000 nM; against Endothelin-1 receptor, 1300 nM.

As to `COc1cccc(-c2c(C(=O)O)n(-c3ccc4c(c3)OCO4)c3ccc(OC)cc23)c1`, the IC50 in experiment [1] is more than 25000 nM; against Endothelin-1 receptor, 5500 nM.

For the compound `O=C(O)c1c(-c2ccc3c(c2)OCO3)c2cc(Cl)ccc2n1-c1ccccc1`, the IC50 is more than 25000 nM in experiment [1] and 10000 nM against Endothelin-1 receptor.

On to `COc1ccc(-c2c(C(=O)O)n(-c3ccc4c(c3)OCO4)c3ccc(OC)cc23)cc1`, for which the IC50 is more than 25000 nM in experiment [1] and 1100 nM at Endothelin-1 receptor.

Turning to `COc1cc2c(-c3ccc4c(c3)OCO4)c(C(=O)O)n(Cc3ccc4c(c3)OCO4)c2cc1OCc1ccccc1`, the IC50 came out at 50 nM in experiment [1], 30 nM against Endothelin-1 receptor and 230 nM in the experiment listed under Oryctolagus cuniculus [6].

For the compound `COc1cc2c(-c3ccc4c(c3)OCO4)c(C(=O)O)n(-c3ccc4c(c3)OCO4)c2cc1OC`, the IC50 in experiment [1] amounted to 7000 nM; at Endothelin-1 receptor, 80 nM.

For `O=C(O)c1c(-c2ccc3c(c2)OCO3)c2ccccc2n1Cc1ccc2c(c1)OCO2`, the IC50 in experiment [1] was 3300 nM; against Endothelin-1 receptor, 1500 nM.

As to `COc1ccc(Cn2c(C(=O)O)c(-c3ccc4c(c3)OCO4)c3cc(OCc4ccccc4)ccc32)cc1`, the IC50 in experiment [1] is 4400 nM; on Endothelin-1 receptor it was 2700 nM.

`O=C(O)c1c(-c2ccc3c(c2)OCO3)c2cc(OCc3ccccc3)ccc2n1Cc1ccc2c(c1)OCO2`: the IC50 in experiment [1] came to 2500 nM; at Endothelin-1 receptor, 800 nM.

In the case of `COc1ccc2c(c1)c(-c1ccc3c(c1)OCO3)c(C(=O)O)n2-c1ccccc1`, the IC50 in experiment [1] is more than 25000 nM; at Endothelin-1 receptor, 12000 nM.
